# Measurements published in US12630492B2, “Cannabinoid derivatives” (CANOPY GROWTH CORPORATION, priority 2019, dated 2026).
# Where two headings read alike, the source gives them in different places.
# Tests used:
# human CB1 receptor = target: T1, human CB1 receptor (Homo sapiens, UniProt P21554); assay: CB1 radioligand competitive binding assay ([3H]CP 55,940 displacement); details: for Selectivity CB1: fold difference between CB1 and CB2 binding, printed in column of receptor with higher affinity, 1.00 in both = same affinity
# T1 construct: host or cells: CHO-K1 (Chinese hamster ovary) cells, stably transfected; membranes prepared in house
# T1 sequence (P21554 whole entry): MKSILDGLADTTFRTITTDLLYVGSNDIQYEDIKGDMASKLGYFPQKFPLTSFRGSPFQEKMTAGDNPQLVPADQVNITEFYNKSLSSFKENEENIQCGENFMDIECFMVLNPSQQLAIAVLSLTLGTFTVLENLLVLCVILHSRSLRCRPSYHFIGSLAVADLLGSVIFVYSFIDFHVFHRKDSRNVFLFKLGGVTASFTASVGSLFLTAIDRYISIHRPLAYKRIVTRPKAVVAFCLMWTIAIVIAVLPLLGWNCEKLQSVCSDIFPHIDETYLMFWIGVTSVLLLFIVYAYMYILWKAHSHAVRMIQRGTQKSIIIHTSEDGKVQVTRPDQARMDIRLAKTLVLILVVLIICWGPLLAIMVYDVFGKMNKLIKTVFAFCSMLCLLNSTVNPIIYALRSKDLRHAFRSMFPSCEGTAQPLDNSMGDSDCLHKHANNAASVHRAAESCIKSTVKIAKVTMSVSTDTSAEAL
# human CB2 receptor = target: T2, human CB2 receptor (Homo sapiens, UniProt P34972); assay: CB2 radioligand competitive binding assay ([3H]CP 55,940 displacement); details: for Selectivity CB2: fold difference between CB1 and CB2 binding, printed in column of receptor with higher affinity, 1.00 in both = same affinity
# T2 construct: host or cells: CHO-K1 (Chinese hamster ovary) cells, stably transfected; membranes prepared in house
# T2 sequence (P34972 whole entry): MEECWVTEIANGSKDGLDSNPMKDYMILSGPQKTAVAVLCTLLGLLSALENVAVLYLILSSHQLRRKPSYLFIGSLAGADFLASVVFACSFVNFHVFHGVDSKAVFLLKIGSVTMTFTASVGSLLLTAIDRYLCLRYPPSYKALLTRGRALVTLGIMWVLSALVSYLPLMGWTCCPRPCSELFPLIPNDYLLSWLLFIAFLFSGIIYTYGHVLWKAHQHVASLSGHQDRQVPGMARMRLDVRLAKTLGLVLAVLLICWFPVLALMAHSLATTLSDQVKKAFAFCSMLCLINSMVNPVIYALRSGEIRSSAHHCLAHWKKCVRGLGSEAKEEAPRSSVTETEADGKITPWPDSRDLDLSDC
# [1] = [3H]CP 55,940 displacement, membranes of CHO-K1 cells expressing human CB1 receptor, read-out: CB1 IC50
# [2] = [3H]CP 55,940 displacement, membranes of CHO-K1 cells expressing human CB2 receptor, read-out: CB2 IC50
Structure (SMILES),IC50 (human CB1 receptor; [1]),IC50 (human CB2 receptor; [2]),Selectivity CB2 (human CB2 receptor),Selectivity CB1 (human CB1 receptor),IC50 (human CB1 receptor),IC50 (human CB2 receptor)
"CCCCCc1cc(OCOCCOC)c(-c2cccc(C)c2)c(OCOCCOC)c1 [2′a, 2,6-bis((2-methoxyethoxy)methoxy)-3′-methyl-4-pentyl-1,1′-biphenyl]",> 10000 nM,50 to 990 nM,19.73,–,–,–
"CCCCCc1cc(OCOCCOC)c(C2C=C(C)CCC2)c(OCOCCOC)c1 (centres unmarked) [2′c, 2′,6′-bis((2-methoxyethoxy)methoxy)-5-methyl-4′-pentyl-1,2,3,4-tetarhydro-1,1′-biphenyl]",50 to 990 nM,< 50 nM,6.38,–,–,–
"C=C(C)C1CCC(C)=CC1c1c(OCOCCOC)cc(CCCCC)cc1OCOCCOC (centres unmarked) [2′d, 2′,6′-bis((2-methoxyethoxy)methoxy)-5-methyl-4′-pentyl-2-(prop-1-en-2-yl)-1,2,3,4-tetrahydro-1,1′-biphenyl]",1000 to 9990 nM,50 to 990 nM,2.50,–,–,–
"CCCCCc1cc(OCOC(=O)C(C)(C)C)c(-c2cccc(C)c2)c(OCOC(=O)C(C)(C)C)c1 [8′a, [3-(2,2-dimethylpropanoyloxymethoxy)-2-(m-tolyl)-5-pentyl-phenoxy]methyl 2,2-dimethylpropanoate]",50 to 990 nM,50 to 990 nM,7.14,–,–,–
"CCCCCc1cc(OCOC(=O)C(C)(C)C)c(C2C=C(C)CCC2)c(OCOC(=O)C(C)(C)C)c1 (centres unmarked) [8′c, ((5′-methyl-4-pentyl-1′,2′,3′,4′-tetrahydro-[1,1′-biphenyl]-2,6-diyl)bis(oxy))bis(methylene)bis(2,2-dimethylpropanoate)]",50 to 990 nM,< 50 nM,6.38,–,–,–
"C=C(C)C1CCC(C)=CC1c1c(OCOC(=O)C(C)(C)C)cc(CCCCC)cc1OCOC(=O)C(C)(C)C (centres unmarked) [8′d, ((5′-methyl-4-pentyl-2′-(prop-1-en-2-yl)-1′,2′,3′,4′-tetrahydro-[1,1′-biphenyl]-2,6-diyl)bis(oxy))bis(methylene) bis(2,2-dimethylpropanoate)]",1000 to 9990 nM,1000 to 9990 nM,2.00,–,–,–
"CCCCCc1cc(OCN(C(=O)OC)c2ccccc2)c(-c2cccc(C)c2)c(OCN(C(=O)OC)c2ccccc2)c1 [14′a, dimethyl (((3′-methyl-4-pentyl-[1,1′-biphenyl]-2,6-diyl)bis(oxy))bis(methylene))bis(phenylcarbamate)]",50 to 990 nM,50 to 990 nM,4.40,–,–,–
"CCCCCc1cc(OCN(C(=O)OC)c2ccccc2)c(C2C=C(C)CCC2)c(OCN(C(=O)OC)c2ccccc2)c1 (centres unmarked) [14′c, dimethyl (((5′-methyl-4-pentyl-1′,2′,3′,4′-tetrahydro-[1,1′-biphenyl]-2,6-diyl)bis(oxy))bis(methylene))bis(phenylcarbamate)]",1000 to 9990 nM,50 to 990 nM,62.50,–,–,–
"CCCCCc1cc(OCOCC)c(-c2cccc(C)c2)c(OCOCC)c1 [17′a, 2,6-bis(ethoxymethoxy)-3′-methyl-4-pentyl-1,1′-biphenyl]",1000 to 9990 nM,50 to 990 nM,8.97,–,–,–
"CCCCCc1cc(OCOCC)c(C2C=C(C)CCC2)c(OCOCC)c1 (centres unmarked) [17′c, 2′,6′-bis(ethoxymethoxy)-5-methyl-4′-pentyl-1,2,3,4-tetrahydro-1,1′-biphenyl]",1000 to 9990 nM,–,–,–,–,–
"C=C(C)C1CCC(C)=CC1c1c(OCOCC)cc(CCCCC)cc1OCOCC (centres unmarked) [17′d, 2′,6′-bis(ethoxymethoxy)-5-methyl-4′-pentyl-2-(prop-1-en-2-yl)-1,2,3,4-tetrahydro-1,1′-biphenyl]",1000 to 9990 nM,50 to 990 nM,3.03,–,–,–
"C=C(C)C1CCC(C)=CC1c1c(OCOC2CCCCC2)cc(CCCCC)cc1OCOC1CCCCC1 (centres unmarked) [18′d, 2′,6′-bis((cyclohexyloxy)methoxy)-5-methyl-4′-pentyl-2-(prop-1-en-2-yl)-1,2,3,4-tetrahydro-1,1′-biphenyl]",> 10000 nM,> 10000 nM,1.00,1.00,–,–
"C=C(C)C1CCC(C)=CC1c1c(OCOCC)cc(C(C)(C)CCCCCC)cc1OCOCC (centres unmarked) [19′d, 2′,6′-bis(ethoxymethoxy)-5-methyl-4′-(2-methyloctan-2-yl)-2-(prop-1-en-2-yl)-1,2,3,4-tetrahydro-1,1′-biphenyl]",1000 to 9990 nM,1000 to 9990 nM,2.00,–,–,–
"C=C(C)C1CCC(C)=CC1c1c(OCN(C(=O)OC)c2ccccc2)cc(C(C)(C)CCCCCC)cc1OCN(C(=O)OC)c1ccccc1 (centres unmarked) [20′d, dimethyl (((5′-methyl-4-(2-methyloctan-2-yl)-2′-(prop-1-en-2-yl)-1′,2′,3′,4′-tetrahydro-[1,1′-biphenyl]-2,6-diyl)bis(oxy))bis(methylene))bis(phenylcarbamate)]",> 10000 nM,1000 to 9990 nM,1.25,–,–,–
"C=C(C)C1CCC(C)=CC1c1c(OCOC(=O)C(C)(C)C)cc(C(C)(C)CCCCCC)cc1OCOC(=O)C(C)(C)C (centres unmarked) [21′d, ((5′-methyl-4-(2-methyloctan-2-yl)-2′-(prop-1-en-2-yl)-1′,2′,3′,4′-tetrahydro-[1,1′-biphenyl]-2,6-diyl)bis(oxy))bis(methylene) bis(2,2-dimethylpropanoate)]",> 10000 nM,1000 to 9990 nM,13.33,–,–,–
"CCCCCc1cc(O)c(-c2cccc(C)c2)c(OCOCCOC)c1 [Compound 2a, 6-((2-methoxyethoxy)methoxy)-3′-methyl-4-pentyl-[1,1′-biphenyl]-2-ol]",1000 to 9990 nM,50 to 990 nM,11.11,–,–,–
"CCCCCc1cc(O)c(C2C=C(C)CCC2)c(OCOCCOC)c1 (centres unmarked) [Compound 2c, 6-((2-methoxyethoxy)methoxy)-5′-methyl-4-pentyl-1′,2′,3′,4′-tetrahydro-[1,1′-biphenyl]-2-ol]",1000 to 9990 nM,50 to 990 nM,13.33,–,–,–
"C=C(C)C1CCC(C)=CC1c1c(O)cc(CCCCC)cc1OCOCCOC (centres unmarked) [Compound 2d, 6-((2-methoxyethoxy)methoxy)-5′-methyl-4-pentyl-2′-(prop-1-en-2-yl)-1′,2′,3′,4′-tetrahydro-[1,1′-biphenyl]-2-ol]",1000 to 9990 nM,1000 to 9990 nM,1.59,–,–,–
"CCCCCc1cc(O)c(-c2cccc(C)c2)c(OCOC(=O)OCC)c1 [Compound 5a, ethyl [3-hydroxy-2-(m-tolyl)-5-pentyl-phenoxy]methyl carbonate]",–,–,7.89,–,1000 to 9990 nM,50 to 990 nM
"CCCCCc1cc(O)c(C2C=C(C)CCC2)c(OCOC(=O)OCC)c1 (centres unmarked) [Compound 5c, ethyl (((6-hydroxy-5′-methyl-4-pentyl-1′,2′,3′,4′-tetrahydro-[1,1′-biphenyl]-2-yl)oxy)methyl) carbonate]",1000 to 9990 nM,50 to 990 nM,9.09,–,–,–
"C=C(C)[C@@H]1CCC(C)=C[C@H]1c1c(O)cc(CCCCC)cc1OCOC(=O)OCC [Compound 5d, ethyl (((6-hydroxy-5′-methyl-4-pentyl-2′-(prop-1-en-2-yl)-1′,2′,3′,4′-tetrahydro-[1,1′-biphenyl]-2-yl)oxy)methyl) carbonate]",–,–,2.00,–,1000 to 9990 nM,1000 to 9990 nM
"CCCCCc1cc(O)c(-c2cccc(C)c2)c(OCOC(=O)C(C)(C)C)c1 [Compound 8a, [3-hydroxy-2-(m-tolyl)-5-pentyl-phenoxy]methyl 2,2-dimethylpropanoate]",50 to 990 nM,< 50 nM,9.39,–,–,–
"CCCCCc1cc(O)c(C2C=C(C)CCC2)c(OCOC(=O)C(C)(C)C)c1 (centres unmarked) [Compound 8c, ((6-hydroxy-5′-methyl-4-pentyl-1′,2′,3′,4′-tetrahydro-[1,1′-biphenyl]-2-yl)oxy)methyl pivalate]",50 to 990 nM,< 50 nM,8.85,–,–,–
"C=C(C)C1CCC(C)=CC1c1c(O)cc(CCCCC)cc1OCOC(=O)C(C)(C)C (centres unmarked) [Compound 8d, ((6-hydroxy-5′-methyl-4-pentyl-2′-(prop-1-en-2-yl)-1′,2′,3′,4′-tetrahydro-[1,1′-biphenyl]-2-yl)oxy)methyl pivalate]",50 to 990 nM,50 to 990 nM,1.76,–,–,–
"CCCCCc1cc(O)c(-c2cccc(C)c2)c(OCN(C(=O)OC)c2ccccc2)c1 [Compound 14a, methyl (((6-hydroxy-3′-methyl-4-pentyl-[1,1′-biphenyl]-2-yl)oxy)methyl)(phenyl)carbamate]",1000 to 9990 nM,50 to 990 nM,9.84,–,–,–
"CCCCCc1cc(O)c(C2C=C(C)CCC2)c(OCN(C(=O)OC)c2ccccc2)c1 (centres unmarked) [Compound 14c, methyl (((6-hydroxy-5′-methyl-4-pentyl-1′,2′,3′,4′-tetrahydro-[1,1′-biphenyl]-2-yl)oxy)methyl)(phenyl)carbamate]",1000 to 9990 nM,1000 to 9990 nM,–,1.36,–,–
"C=C(C)[C@@H]1CCC(C)=C[C@H]1c1c(O)cc(CCCCC)cc1OCN(C(=O)OC)c1ccccc1 [Compound 14d, methyl (((6-hydroxy-5′-methyl-4-pentyl-2′-(prop-1-en-2-yl)-1′,2′,3′,4′-tetrahydro-[1,1′-biphenyl]-2-yl)oxy)methyl)(phenyl)carbamate]",–,–,–,2.53,50 to 990 nM,50 to 990 nM
"CCCCCc1cc(O)c(-c2cccc(C)c2)c(OCOCC)c1 [Compound 17a, 6-(ethoxymethoxy)-3′-methyl-4-pentyl-[1,1′-biphenyl]2-ol]",1000 to 9990 nM,1000 to 9990 nM,5.20,–,–,–
"CCCCCc1cc(O)c(C2C=C(C)CCC2)c(OCOCC)c1 (centres unmarked) [Compound 17c, 6-(ethoxymethoxy)-5′-methyl-4-pentyl-1′,2′,3′,4′-tetrahydro-[1,1′-biphenyl]-2-ol]",1000 to 9990 nM,50 to 990 nM,2.47,–,–,–
"C=C(C)C1CCC(C)=CC1c1c(O)cc(CCCCC)cc1OCOCC (centres unmarked) [Compound 17d, 6-(ethoxymethoxy)-5′-methyl-4-pentyl-2′-(prop-1-en-2-yl)-1′,2′,3′,4′-tetrahydro-[1,1′-biphenyl]-2-ol]",1000 to 9990 nM,50 to 990 nM,1.53,–,–,–
